{"source": "patent US4281121A", "about": "“1,3,4-Thiadiazole-2-carboxylic acid derivatives, process for making the same and fungicidal and nematocidal compositions containing same” (Schering Aktiengesellschaft, priority 1978, dated 1981)"}
{"tested_on": "Tilletia caries", "assay": "Treatment of oat seeds infested with Tilletia caries (spore germination)", "assay_type": "in vivo", "conditions": "10 g active agent per 100 kg", "units": {"% activity": "%"}}
{"smiles": "CCCNC(=O)c1nnc(S(=O)(=O)CC)s1", "note": "[5-ethylsulfonyl-1,3,4-thiadiazole-2-carboxylic acid-propylamide]", "% activity": 100}
{"tested_on": "Tilletia caries", "assay": "Treatment of oat seeds infested with Tilletia caries (spore germination)", "assay_type": "in vivo", "conditions": "20 g active agent per 100 kg", "units": {"% activity": "%"}}
{"smiles": "CCCNC(=O)c1nnc(S(=O)(=O)CC)s1", "note": "[5-ethylsulfonyl-1,3,4-thiadiazole-2-carboxylic acid-propylamide]", "% activity": 100}
{"tested_on": "Tilletia caries", "assay": "Treatment of oat seeds infested with Tilletia caries (spore germination)", "assay_type": "in vivo", "conditions": "50 g active agent per 100 kg", "units": {"% activity": "%"}}
{"smiles": "CCCNC(=O)c1nnc(S(=O)(=O)CC)s1", "note": "[5-ethylsulfonyl-1,3,4-thiadiazole-2-carboxylic acid-propylamide]", "% activity": 100}
{"tested_on": "Alternaria solani", "assay": "Inhibition of fungus in a nutrient solution: Alternaria solani;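 note: 0 means no fungus growth and higher grades mean more surface covered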", "assay_type": "cell-based", "conditions": "0.002%, 6 days at 21-23° C."}
{"smiles": "CCOC(=O)c1nnc(S(=O)(=O)CC)s1", "note": "[5-ethylsulfonyl-1,3,4-thiadiazole-2-carboxylic acid-ethylester]", "fungus development on the surface of the nutrient solution (0-5)": 0}
{"smiles": "COC(=O)c1nnc(S(C)(=O)=O)s1", "note": "[5-methylsulfonyl-1,3,4-thiadiazole-2-carboxylic acid-methylester]", "fungus development on the surface of the nutrient solution (0-5)": 1}
{"smiles": "O=C1c2ccccc2C(=O)N1SC(Cl)(Cl)Cl", "note": "[N-trichloromethylmercapto-phthalimide, reference compound]", "fungus development on the surface of the nutrient solution (0-5)": "4 (30 to 60% of the surface covered by the fungus turf)"}
{"smiles": "N#Cc1c(Cl)c(Cl)c(Cl)c(C#N)c1Cl", "note": "[Tetrachloroisophthalodinitrile, reference compound]", "fungus development on the surface of the nutrient solution (0-5)": "5 (60 to 100% of the surface covered by the fungus turf)"}
{"tested_on": "Alternaria solani", "assay": "Inhibition of fungus in a nutrient solution: Alternaria solani;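 note: 0 means no fungus growth and higher grades mean more surface covered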", "assay_type": "cell-based", "conditions": "0.004%, 6 days at 21-23° C."}
{"smiles": "CCOC(=O)c1nnc(S(=O)(=O)CC)s1", "note": "[5-ethylsulfonyl-1,3,4-thiadiazole-2-carboxylic acid-ethylester]", "fungus development on the surface of the nutrient solution (0-5)": 0}
{"smiles": "COC(=O)c1nnc(S(C)(=O)=O)s1", "note": "[5-methylsulfonyl-1,3,4-thiadiazole-2-carboxylic acid-methylester]", "fungus development on the surface of the nutrient solution (0-5)": 0}
{"smiles": "O=C1c2ccccc2C(=O)N1SC(Cl)(Cl)Cl", "note": "[N-trichloromethylmercapto-phthalimide, reference compound]", "fungus development on the surface of the nutrient solution (0-5)": "4 (30 to 60% of the surface covered by the fungus turf)"}
{"smiles": "N#Cc1c(Cl)c(Cl)c(Cl)c(C#N)c1Cl", "note": "[Tetrachloroisophthalodinitrile, reference compound]", "fungus development on the surface of the nutrient solution (0-5)": "5 (60 to 100% of the surface covered by the fungus turf)"}
{"tested_on": "Helminthosporium gramineum", "assay": "Seed treatment in open field tests for infestation by Helminthosporium gramineum (barley)", "assay_type": "in vivo", "conditions": "summer barley; 25 g active agent/100 kg barley; about 3 months", "method": "(§1) Seed treatment in open field tests for infestation by Helminthosporium gramineum\n(§2) The active agents were used in the form of pulverulent compositions. After about 8 months in case of winter barley and after about 3 months in case of summer barley the infested plants were counted and the activity was calculated by the formula [formula]", "units": {"% activity": "%"}}
{"smiles": "CCCNC(=O)c1nnc(S(=O)(=O)CC)s1", "note": "[5-ethylsulfonyl-1,3,4-thiadiazole-2-carboxylic acid-propylamide]", "% activity": 95}
{"tested_on": "Helminthosporium gramineum", "assay": "Seed treatment in open field tests for infestation by Helminthosporium gramineum (barley)", "assay_type": "in vivo", "conditions": "summer barley; 50 g active agent/100 kg barley; about 3 months", "method": "as §1, §2", "units": {"% activity": "%"}}
{"smiles": "CCCNC(=O)c1nnc(S(=O)(=O)CC)s1", "note": "[5-ethylsulfonyl-1,3,4-thiadiazole-2-carboxylic acid-propylamide]", "% activity": 99.3}
{"tested_on": "Helminthosporium gramineum", "assay": "Seed treatment in open field tests for infestation by Helminthosporium gramineum (barley)", "assay_type": "in vivo", "conditions": "summer barley; 100 g active agent/100 kg barley; about 3 months", "method": "as §1, §2", "units": {"% activity": "%"}}
{"smiles": "CCCNC(=O)c1nnc(S(=O)(=O)CC)s1", "note": "[5-ethylsulfonyl-1,3,4-thiadiazole-2-carboxylic acid-propylamide]", "% activity": 100}
{"tested_on": "Septoria nodorum", "assay": "Treatment of oat seeds against Septoria nodorum", "assay_type": "in vivo", "conditions": "50 g active agent/100 kg seeds; 4 weeks", "method": "Effects of the treatment of oat seeds against Septoria nodorum\nThey were then seeded on a moist substrate for germination. As a control untreated seeds were likewise seeded. At about 6° C. the seed was incubated in an air-conditioned chamber until after 4 weeks the proportion of diseased seeds could be determined and the activity of the fungicidal compounds was calculated on the basis of the following formula: [formula]\nThe active agents were applied in the form of 20% concentration pulverulent compositions.", "units": {"% activity": "%"}}
{"smiles": "CCCNC(=O)c1nnc(S(=O)(=O)CC)s1", "note": "[5-ethylsulfonyl-1,3,4-thiadiazole-2-carboxylic acid-propylamide]", "% activity": 81}
{"tested_on": "Piricularia oryzae", "assay": "not given", "assay_type": "in vivo", "conditions": "concentration of active agent 0.1 (percentages); 5 days", "units": {"% activity": "%"}}
{"smiles": "CCOC(=O)c1nnc(S(=O)(=O)CC)s1", "note": "[5-ethylsulfonyl-1,3,4-thiadiazole-2-carboxylic acid-ethylester]", "% activity": 95}
{"tested_on": "Fusarium avenaceum", "assay": "Inhibition of fungus in a nutrient solution: Fusarium avenaceum;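 note: 0 means no fungus growth and higher grades mean more surface covered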", "assay_type": "cell-based", "conditions": "0.002%, 6 days at 21-23° C.", "method": "(§3) Inhibition of fungus in a nutrient solution\n(§4) 20 ml of a nutrient solution of grape juice and water (1:1) were filled into a glass vial of a 100 ml capacity and were mixed with the pulverulent active agents which appear from the subsequent table. Thereafter, the solution was inoculated with conidia (spores) of the test fungi.\n(§5) After an incubation time of 6 days at 21° to 23° C. the fungus development on the surface of the nutrient solution was evaluated. The test fungi used were the following: Penicillium digitatum, Botrytis cinerea, Alternaria solani, Fusarium avenaceum.\n(§6) The evaluation was carried out at a scale from 0 to 5 as follows: […]"}
{"smiles": "CCOC(=O)c1nnc(S(=O)(=O)CC)s1", "note": "[5-ethylsulfonyl-1,3,4-thiadiazole-2-carboxylic acid-ethylester]", "fungus development on the surface of the nutrient solution (0-5)": 1}
{"smiles": "COC(=O)c1nnc(S(C)(=O)=O)s1", "note": "[5-methylsulfonyl-1,3,4-thiadiazole-2-carboxylic acid-methylester]", "fungus development on the surface of the nutrient solution (0-5)": 0}
{"smiles": "O=C1c2ccccc2C(=O)N1SC(Cl)(Cl)Cl", "note": "[N-trichloromethylmercapto-phthalimide, reference compound]", "fungus development on the surface of the nutrient solution (0-5)": "4 (30 to 60% of the surface covered by the fungus turf)"}
{"smiles": "N#Cc1c(Cl)c(Cl)c(Cl)c(C#N)c1Cl", "note": "[Tetrachloroisophthalodinitrile, reference compound]", "fungus development on the surface of the nutrient solution (0-5)": "4 (30 to 60% of the surface covered by the fungus turf)"}
{"tested_on": "Fusarium avenaceum", "assay": "Inhibition of fungus in a nutrient solution: Fusarium avenaceum;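 note: 0 means no fungus growth and higher grades mean more surface covered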", "assay_type": "cell-based", "conditions": "0.004%, 6 days at 21-23° C.", "method": "as §3, §4, §5, §6"}
{"smiles": "CCOC(=O)c1nnc(S(=O)(=O)CC)s1", "note": "[5-ethylsulfonyl-1,3,4-thiadiazole-2-carboxylic acid-ethylester]", "fungus development on the surface of the nutrient solution (0-5)": 0}
{"smiles": "COC(=O)c1nnc(S(C)(=O)=O)s1", "note": "[5-methylsulfonyl-1,3,4-thiadiazole-2-carboxylic acid-methylester]", "fungus development on the surface of the nutrient solution (0-5)": 0}
{"smiles": "O=C1c2ccccc2C(=O)N1SC(Cl)(Cl)Cl", "note": "[N-trichloromethylmercapto-phthalimide, reference compound]", "fungus development on the surface of the nutrient solution (0-5)": "4 (30 to 60% of the surface covered by the fungus turf)"}
{"smiles": "N#Cc1c(Cl)c(Cl)c(Cl)c(C#N)c1Cl", "note": "[Tetrachloroisophthalodinitrile, reference compound]", "fungus development on the surface of the nutrient solution (0-5)": "3 (10 to 30% of the surface covered by the fungus turf)"}
{"tested_on": "Botrytis cinerea", "assay": "Inhibition of fungus in a nutrient solution: Botrytis cinerea;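 note: 0 means no fungus growth and higher grades mean more surface covered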", "assay_type": "cell-based", "conditions": "0.002%, 6 days at 21-23° C."}
{"smiles": "CCOC(=O)c1nnc(S(=O)(=O)CC)s1", "note": "[5-ethylsulfonyl-1,3,4-thiadiazole-2-carboxylic acid-ethylester]", "fungus development on the surface of the nutrient solution (0-5)": "2 (5 to 10% of the surface covered by the fungus turf)"}
{"smiles": "COC(=O)c1nnc(S(C)(=O)=O)s1", "note": "[5-methylsulfonyl-1,3,4-thiadiazole-2-carboxylic acid-methylester]", "fungus development on the surface of the nutrient solution (0-5)": 1}
{"smiles": "O=C1c2ccccc2C(=O)N1SC(Cl)(Cl)Cl", "note": "[N-trichloromethylmercapto-phthalimide, reference compound]", "fungus development on the surface of the nutrient solution (0-5)": "4 (30 to 60% of the surface covered by the fungus turf)"}
{"smiles": "N#Cc1c(Cl)c(Cl)c(Cl)c(C#N)c1Cl", "note": "[Tetrachloroisophthalodinitrile, reference compound]", "fungus development on the surface of the nutrient solution (0-5)": "5 (60 to 100% of the surface covered by the fungus turf)"}
{"tested_on": "Botrytis cinerea", "assay": "Inhibition of fungus in a nutrient solution: Botrytis cinerea;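 note: 0 means no fungus growth and higher grades mean more surface covered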", "assay_type": "cell-based", "conditions": "0.004%, 6 days at 21-23° C."}
{"smiles": "CCOC(=O)c1nnc(S(=O)(=O)CC)s1", "note": "[5-ethylsulfonyl-1,3,4-thiadiazole-2-carboxylic acid-ethylester]", "fungus development on the surface of the nutrient solution (0-5)": 0}
{"smiles": "COC(=O)c1nnc(S(C)(=O)=O)s1", "note": "[5-methylsulfonyl-1,3,4-thiadiazole-2-carboxylic acid-methylester]", "fungus development on the surface of the nutrient solution (0-5)": 0}
{"smiles": "O=C1c2ccccc2C(=O)N1SC(Cl)(Cl)Cl", "note": "[N-trichloromethylmercapto-phthalimide, reference compound]", "fungus development on the surface of the nutrient solution (0-5)": "3 (10 to 30% of the surface covered by the fungus turf)"}
{"smiles": "N#Cc1c(Cl)c(Cl)c(Cl)c(C#N)c1Cl", "note": "[Tetrachloroisophthalodinitrile, reference compound]", "fungus development on the surface of the nutrient solution (0-5)": "4 (30 to 60% of the surface covered by the fungus turf)"}
{"tested_on": "Penicillium digitatum", "assay": "Inhibition of fungus in a nutrient solution: Penicillium digitatum;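 note: 0 means no fungus growth and higher grades mean more surface covered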", "assay_type": "cell-based", "conditions": "0.002%, 6 days at 21-23° C."}
{"smiles": "CCOC(=O)c1nnc(S(=O)(=O)CC)s1", "note": "[5-ethylsulfonyl-1,3,4-thiadiazole-2-carboxylic acid-ethylester]", "fungus development on the surface of the nutrient solution (0-5)": 1}
{"smiles": "COC(=O)c1nnc(S(C)(=O)=O)s1", "note": "[5-methylsulfonyl-1,3,4-thiadiazole-2-carboxylic acid-methylester]", "fungus development on the surface of the nutrient solution (0-5)": 1}
{"smiles": "O=C1c2ccccc2C(=O)N1SC(Cl)(Cl)Cl", "note": "[N-trichloromethylmercapto-phthalimide, reference compound]", "fungus development on the surface of the nutrient solution (0-5)": "4 (30 to 60% of the surface covered by the fungus turf)"}
{"smiles": "N#Cc1c(Cl)c(Cl)c(Cl)c(C#N)c1Cl", "note": "[Tetrachloroisophthalodinitrile, reference compound]", "fungus development on the surface of the nutrient solution (0-5)": "3 (10 to 30% of the surface covered by the fungus turf)"}
{"tested_on": "Penicillium digitatum", "assay": "Inhibition of fungus in a nutrient solution: Penicillium digitatum;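 note: 0 means no fungus growth and higher grades mean more surface covered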", "assay_type": "cell-based", "conditions": "0.004%, 6 days at 21-23° C."}
{"smiles": "CCOC(=O)c1nnc(S(=O)(=O)CC)s1", "note": "[5-ethylsulfonyl-1,3,4-thiadiazole-2-carboxylic acid-ethylester]", "fungus development on the surface of the nutrient solution (0-5)": 0}
{"smiles": "COC(=O)c1nnc(S(C)(=O)=O)s1", "note": "[5-methylsulfonyl-1,3,4-thiadiazole-2-carboxylic acid-methylester]", "fungus development on the surface of the nutrient solution (0-5)": 0}
{"smiles": "O=C1c2ccccc2C(=O)N1SC(Cl)(Cl)Cl", "note": "[N-trichloromethylmercapto-phthalimide, reference compound]", "fungus development on the surface of the nutrient solution (0-5)": "4 (30 to 60% of the surface covered by the fungus turf)"}
{"smiles": "N#Cc1c(Cl)c(Cl)c(Cl)c(C#N)c1Cl", "note": "[Tetrachloroisophthalodinitrile, reference compound]", "fungus development on the surface of the nutrient solution (0-5)": "2 (5 to 10% of the surface covered by the fungus turf)"}
{"tested_on": "Helminthosporium gram", "assay": "not given", "conditions": "50 g active agent per 100 kg; about 5 weeks", "units": {"% activity": "%"}}
{"smiles": "CCCNC(=O)c1nnc(S(=O)(=O)CC)s1", "note": "[5-ethylsulfonyl-1,3,4-thiadiazole-2-carboxylic acid-propylamide]", "% activity": 92}
